Measured values reported in US7745641B2, “Nitrogen-containing heterocyclic compound” (Kyowa Hakko Kirin Co., Ltd., priority 2005, dated 2010).

How the values were obtained:
human FGFR3 = target: T1, human FGFR3 (Homo sapiens, UniProt P22607); assay: Fibroblast growth factor receptor 3 (FGFR3) inhibitory activity, time-resolved fluoroimmunoassay; format: biochemical; conditions: 10 μmol/L test compound
T1 construct: the intracellular domain (448-759 amino acids) of human FGFR3; made in house; host or cells: insect cells (baculovirus)
Description: In order to determine FGFR3 inhibitory activity, the following method was employed. FGFR3 was prepared by allowing baculovirus that expresses a protein in which glutathione S-transferase (GST) was fused to the N-terminal of the intracellular domain (448-759 amino acids) of human FGFR3 to infect insect cells. Biotinylated polyglutamic acid-tyrosine peptide (Nihon Schering K.K., Catalogue No. 61GT0BAA) used as a substrate was immobilized on a 96-well plate coated with NeutroAvidin (Pierce, Catalogue No. 31000) and was then blocked with 0.25% gelatin to yield a plate for the determination of kinase reaction A solution containing, at final concentrations, 8 μg/L GST-fused FGFR3 protein, 20 mmol/L Tris-Cl (pH 7.5), 0.04% 2-mercaptoethanol, 0.04 mmol/L Na3VO4, 20 mmol/L MgCl2, 5 mmol/L MnCl2, 10 mmol/L ATP, 0.1% bovine serum albumin (BSA; Sigma Corporation, Catalogue No. A4503), 0.1% dimethyl sulfoxide (DMSO), and 10 μmol/L test compound was prepared. Subsequently, 50 μL of the solution was placed in each of the wells of the plate for the determination of kinase reaction, followed by enzymatic reaction at 24° C. for 60 minutes. The plate was washed with TBS-T [10 mM Tris-Cl (pH 7.5), 150 mmol/L NaCl, and 0.05% Tween 20 (Bio-Rad Laboratories Inc., Catalogue No. 170-6531)] four times, and allowed to react with europium-labeled anti-phosphotyrosine antibody (PerkinElmer Inc. Catalogue No. AD0160) at room temperature for 60 minutes. The plate was further washed with TBS-T four times. Subsequently, DELFIA. Enhancement Solution (PerkinElmer Inc. Catalogue No. 1244-105) was added to the plate, and time-resolved fluoroimmunoassay was performed (excitation wavelength: 340 nm, measuring wavelength: 615 nm). The relative activity (%) of a well in which the test compound was added was calculated using the value of a well containing the enzyme and 0.1% DMSO being 100% and the value of a well not containing the enzyme being 0%. The FGFR3 inhibitory activity (%) of the test compound was determined by subtracting the relative activity (%) from 100.

Aurora = Aurora inhibitory activity using Western blotting method (phosphorylation of histone H3 Ser10); format: cell-based, human; conditions: 10 μmol/L, 30 minutes, HCT116 cells accumulated in M phase with Nocodazole
Description: It is known that Aurora phosphorylates Ser10 of histone H3 in the G2/M phase during the cell cycle [Molecular and Cellular Biology, Vol. 22, p. 874 (2002)]. Consequently, the inhibition of phosphorylation of histone H3 Ser10 in cells was detected by a Western blotting method using human colon cancer cell line HCT116 cells accumulated in the M phase. McCoy's 5A culture medium (GIBCO, Catalogue No. 16600-082) containing 10% bovine fetus serum (GIBCO, Catalogue No. 10099-141) was used for the cultivation of the cells. The HCT116 cells were inoculated and then treated with Nocodazole (Sigma Corporation, Catalogue No. M-1404) so that the cell cycle was accumulated to the M phase. A test compound (final concentration: 10 μmol/L) was added thereto, and the cells were incubated at 37° C. for 30 minutes. The cells were then recovered and washed with a phosphate buffered saline (PBS) once. The cells were suspended in a cell-solubilizing solution (50 mmol/L 2-[4-(2-hydroxyethyl)-1-piperazinyl]ethanesulfonic acid (HEPES) (pH 7.4), 150 mmol/L NaCl, 1 mmol/L ethylenediamine-N,N,N′,N′-tetraacetic acid disodium salt dihydrate (EDTA), 2.5 mmol/L ethylene glycol bis(2-aminoethylether)-N,N,N′,N′-tetraacetic acid (EGTA), 0.1% Tween-20 (Bio-Rad Laboratories Inc., Catalogue No. 170-6531), 10% β-glycerophosphate, 1 mmol/L NaF, 0.1 mmol/L Na3VO4, 1 mmol/L Pefabloc SC (Roche Diagnostics K.K., Catalogue No. 1 429 868), and Complete EDTA-free (Roche Diagnostics K.K., Catalogue No. 1 873 580)}, and the suspension was frozen and thawed. Subsequently, the supernatant obtained by centrifugal separation was used as a cell extraction solution. SDS-PAGE was performed using a 12.5% polyacrylamide gel under the condition that the amount of protein per sample was 30 μg in accordance with the method used by Laemmli et al. The protein was transferred onto a PVDF membrane (Millipore Corporation, Catalogue No. IPVH304F0) by a semi-dry method. The membrane was allowed to react with anti-phosphorylated histone H3 Ser10 antibody (Upstate Inc., Catalogue No. 06-570) used as a primary antibody, and an HRP-labeled anti-rabbit IgG antibody (Amersham biosciences, Catalogue No. NA934V) used as a secondary antibody. Subsequently, […] was detected using a SuperSignal West Pico chemiluminescence substrate (Pierce, Catalogue No. 34077).

HCT116 cells = assay: Evaluation of Aurora inhibitory activity by analysis of nuclear morphology (enlarged lobed nuclei); format: cell-based, human; conditions: concentration in the range of 0.1 to 1 μmol/L, 17 hours contact; optimal concentration different in each compound
Description: 281 (2003)]. Consequently, enlarged lobed nuclei-inducibility of test compounds for HCT116 cells was evaluated. McCoy's 5A culture medium (GIBCO, Catalogue No. 16600-082) containing 10% bovine fetus serum (GIBCO, Catalogue No. 10099-141) was used for the cultivation of the cells. HCT116 cells were inoculated and, 24 hours later, each test compound was added thereto.

Flt-3 = target: T2, Flt-3 (Homo sapiens, UniProt P36888); assay: Flt-3 inhibitory activity, time-resolved fluoroimmunoassay; format: biochemical; conditions: 10 μmol/L test compound
T2 construct: His tag; purchased Upstate Inc. 14-500
T2 sequence (P36888 564-993 limits assumed): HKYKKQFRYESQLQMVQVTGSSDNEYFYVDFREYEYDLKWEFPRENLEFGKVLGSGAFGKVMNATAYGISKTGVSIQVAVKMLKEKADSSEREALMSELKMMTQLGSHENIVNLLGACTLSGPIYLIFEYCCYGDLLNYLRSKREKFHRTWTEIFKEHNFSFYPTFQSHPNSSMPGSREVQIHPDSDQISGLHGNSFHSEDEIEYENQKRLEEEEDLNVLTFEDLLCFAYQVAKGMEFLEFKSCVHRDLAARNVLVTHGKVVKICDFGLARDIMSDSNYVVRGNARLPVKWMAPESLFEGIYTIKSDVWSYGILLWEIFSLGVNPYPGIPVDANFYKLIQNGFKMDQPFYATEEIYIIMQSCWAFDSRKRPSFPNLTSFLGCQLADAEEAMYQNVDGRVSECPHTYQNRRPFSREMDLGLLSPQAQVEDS
Description: Flt-3 inhibitory activity was determined by a method described below.
Biotinylated polyglutamic acid-tyrosine peptide (Nihon Schering K.K., Catalogue No. 61GT0BAA) used as a substrate was immobilized on a 96-well plate (FIA-PLATE BLACK 96 well FALT-BOTTOM HIGH BINDING, Greiner Bio-one Co., Ltd., Catalogue No. 655077) coated with NeutroAvidin (Pierce, Catalogue No. 31000) and was then blocked with 0.25% gelatin to yield a plate for the determination of kinase reaction. A solution containing, at final concentrations, 8 μg/L His-tagged protein-fused Flt-3 (Upstate Inc., Catalogue No. 14-500), 20 mmol/L Tris-Cl (pH 7.5), 0.04% 2-mercaptoethanol, 0.04 mmol/L Na3VO4, 20 mmol/L MgCl2, 5 mmol/L MnCl2, 10 μmol/L ATP, 0.1% BSA, 0.1% DMSO, and […] test compound was prepared. Subsequently, 50 μL of the solution was placed in each of the wells of the plate for the determination of kinase reaction, followed by enzymatic reaction at 24° C. for 60 minutes. The plate was washed with TBS-T [10 mmol/L Tris-Cl (pH 7.5), 150 mmol/L NaCl, and 0.05% Tween 20 (Bio-Rad Laboratories Inc., Catalogue No. 170-6531)] four times, and allowed to react with europium-labeled anti-phosphotyrosine antibody (PerkinElmer Inc. Catalogue No. AD0160) at room temperature for 60 minutes. The plate was further washed with TBS-T four times. Subsequently, time-resolved fluoroimmunoassay was performed (excitation wavelength: 340 nm, measuring wavelength: 615 nm). The relative activity (%) of a well to which the enzyme and the test compound were added was calculated using the value of a well to which the test compound was not added being 100% and the value of a well to which the enzyme and the test compound were not added being 0%. The Flt-3 inhibitory activity (%) of the test compound was determined by subtracting the relative activity (%) from 100.

[1] = tested on: human-tumor-transplant mouse models; conditions: cited from earlier work
[2] = tested on: human-tumor-transplant rat models; conditions: cited from earlier work

T1 sequence (P22607 448-759): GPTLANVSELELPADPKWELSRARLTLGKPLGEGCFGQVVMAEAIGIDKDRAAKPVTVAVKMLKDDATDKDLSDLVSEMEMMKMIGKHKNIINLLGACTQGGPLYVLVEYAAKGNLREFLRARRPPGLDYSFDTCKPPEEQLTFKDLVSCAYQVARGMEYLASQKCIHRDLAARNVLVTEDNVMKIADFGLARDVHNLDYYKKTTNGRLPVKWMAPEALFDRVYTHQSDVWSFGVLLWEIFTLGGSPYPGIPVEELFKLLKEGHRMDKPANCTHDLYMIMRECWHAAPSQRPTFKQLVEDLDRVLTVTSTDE

Row | inhibition at 10 µM (human FGFR3) [%] | inhibition at 10 µM (Flt-3) [%] | melting point [°C] | Compound | suppression of the phosphorylation of histone H3 Ser10 in HCT116 cells (Aurora) | ability of inducing enlarged lobed nuclei for HCT116 cells (HCT116 cells) | antitumor activity [1] | antitumor activity [2]
1 | ≥ 50 | ≥ 50 | 232 to 234 | COc1cc(-c2cc3cc(CN(C)C)ccc3[nH]2)c2c(c1OS(C)(=O)=O)CNC2=O [Compound 362, 4-Methanesulfonyloxy-5-methoxy-7-[1H-5-(dimethylaminomethyl)indol-2-yl]isoindolinone] | almost completely suppressed | show ability of inducing enlarged lobed nuclei | – | –
2 | ≥ 50 | ≥ 50 | 187 to 189 | COc1cc(-c2cc3cc(CN4CCCC4)ccc3[nH]2)c2c(c1OS(C)(=O)=O)CNC2=O [Compound 366, 4-Methanesulfonyloxy-5-methoxy-7-[1H-5-(pyrrolidin-1-ylmethyl)indol-2-yl]isoindolinone] | almost completely suppressed | show ability of inducing enlarged lobed nuclei | – | –
3 | ≥ 50 | ≥ 50 | 188 to 190 | COCCNCc1ccc2[nH]c(-c3cc(OC)c(OS(C)(=O)=O)c4c3C(=O)NC4)cc2c1 [Compound 374, 4-Methanesulfonyloxy-5-methoxy-7-[1H-5-(2-methoxyethylaminomethyl)indol-2-yl]isoindolinone] | almost completely suppressed | show ability of inducing enlarged lobed nuclei | – | –
4 | ≥ 50 | ≥ 50 | 197 to 199 | COCCN(C)Cc1ccc2[nH]c(-c3cc(OC)c(OS(C)(=O)=O)c4c3C(=O)NC4)cc2c1 [Compound 455, 4-Methanesulfonyloxy-5-methoxy-7-{1H-5-[N-(2-methoxyethyl)methylaminomethyl]indol-2-yl}isoindolinone] | almost completely suppressed | show ability of inducing enlarged lobed nuclei | – | –
5 | – | – | – | Nc1nc(Nc2ccc(S(N)(=O)=O)cc2)nn1C(=O)c1c(F)cccc1F [JNJ-7706621] | – | – | exhibits an antitumor activity | –
6 | – | – | – | Cc1cc(Nc2cc(N3CCN(C)CC3)nc(Sc3ccc(NC(=O)C4CC4)cc3)n2)n[nH]1 [VX-680] | – | – | exhibits an antitumor activity | exhibits an antitumor activity
